Reference: patent US10172814B2, “Substituted pyridyl-cycloalkyl-carboxylic acids, compositions containing them and medical uses thereof” (BAYER PHARMA AKTIENGESELLSCHAFT, priority 2014, dated 2019)
Read-outs that look alike come from different tables or passages of the source.

Tests used:
human PTGES = human PTGES (Homo sapiens (Human), UniProt O14684); assay: Human PTGES biochemical enzyme inhibition assay (conversion of PGH2 to PGE2, TR-FRET)
Summary of the method: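 FLAG-tagged human PTGES from Hi-5 insect cells preincubated 15–20 min with compound in pH 7.2 phosphate buffer with 2.5 mM reduced glutathione; reaction started with 8 nM PGH2 final, stopped with SnCl2/KF.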

[1] = tested on: CFA induced PGE2 release in the ipsilateral inflamed hind paw of human KI mice (expressing human PTGES); assay: PGE2 measurements in CFA inflammation model using humanized KI mice; assay type: in vivo; conditions: p.o., single dose, hind paw 48 h after CFA, 1 h after dose
Experimental: PGE2 Measurements in CFA Inflammation Model Using Humanized KI Mice
Female transgenic mice expressing the human PTGES enzyme (Taconic, Xu et al. 2008) received intraplantar injection of complete Freund's adjuvant (CFA) (30 μl, 1 mg/ml, Sigma) into the left hind paw under isoflurane anesthesia. […] At termination of the experiments (48 h after CFA, 1 h after dose), hind paw tissue is collected for analysis of PGE2 levels (ELISA, Cayman Chemical item no. 514531). […] Statistical analysis is performed with one-way analysis of variance, followed by Bonferroni's multiple comparison test vs. vehicle controls using the GraphPad PRISM software, *p<0.05, **p<0.01.

[2] = Unbound plasma concentration in human KI mice of the CFA model; assay type: in vivo; conditions: female, human PTGES knock-in (humanized KI, transgenic) mice, mouse, read-out: Plasma concentration Cplasma-unbound
Experimental: At termination of the experiments (48 h after CFA, 1 h after dose), hind paw tissue is collected for analysis of PGE2 levels (ELISA, Cayman Chemical item no. 514531). […] Statistical analysis is performed with one-way analysis of variance, followed by Bonferroni's multiple comparison test vs. vehicle controls using the GraphPad PRISM software, *p<0.05, **p<0.01.

[3] = Enzymatic conversion of PGH2 to PGE2, read-out: Human PTGES IC50
[4] = human PTGES, as listed in Table 2, read-out: hu IC50 biochem.

human PTGES, sequence (O14684 whole entry): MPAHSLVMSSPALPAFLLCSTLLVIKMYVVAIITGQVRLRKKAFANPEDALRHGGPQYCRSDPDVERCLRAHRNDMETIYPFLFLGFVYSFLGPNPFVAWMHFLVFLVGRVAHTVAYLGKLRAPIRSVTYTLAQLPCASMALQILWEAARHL

For Cc1c(CCC(=O)O)cccc1NC(=O)C(c1ccc(-c2cncc(C(F)(F)F)c2)c(F)c1)C1CCCC1 (single isomer, unassigned; (-)) [Example 48, (−) 3-{3-[(Cyclopentyl{3-fluoro-4-[5-(trifluoromethyl)pyridin-3-yl]phenyl}acetyl)amino]-2-methylphenyl}propanoic acid], the IC50 (human PTGES; [3]) was 14.2 nM, the IC50 (human PTGES; [4]) was 3 nM and the “% inhibition of PGE2 in vivo vs vehicle” value ([1]; 1 mg/kg) was 38%. For the same compound, the “% inhibition of PGE2 in vivo vs vehicle” value ([1]; 3 mg/kg) was 74%, the “% inhibition of PGE2 in vivo vs vehicle” value ([1]; 10 mg/kg) was 78% and the concentration at 1 h ([2]; in vivo, 1 mg/kg) was 11 nM. The concentration at 1 h ([2]; in vivo, 3 mg/kg) was 32 nM and the concentration at 1 h ([2]; in vivo, 10 mg/kg) was 88 nM.
With Cc1c(CCC(=O)O)cccc1NC(=O)C(c1ccc(-c2cncc(C(F)(F)F)c2)cc1)C1CCC1 (single isomer, unassigned; (-)) [Example 55, (−) 3-{3-[(Cyclobutyl{4-[5-(trifluoromethyl)pyridin-3-yl]phenyl}acetyl)amino]-2-methylphenyl}propanoic acid] the IC50 (human PTGES; [3]) was 35.4 nM, the IC50 (human PTGES; [4]) was 27 nM and the “% inhibition of PGE2 in vivo vs vehicle” value ([1]; 1 mg/kg) was 84%. For the same compound, the “% inhibition of PGE2 in vivo vs vehicle” value ([1]; 3 mg/kg) was 93%, the “% inhibition of PGE2 in vivo vs vehicle” value ([1]; 10 mg/kg) was 96% and the concentration at 1 h ([2]; in vivo, 1 mg/kg) was 34 nM. For the same compound, the concentration at 1 h ([2]; in vivo, 3 mg/kg) was 103 nM and the concentration at 1 h ([2]; in vivo, 10 mg/kg) was 322 nM.
In the case of Cc1c(NC(=O)C(c2ccc(-c3cncc(Cl)c3)cc2)C2CCCC2)cccc1C(C)CC(=O)O (single isomer, unassigned; stereoisomer 2) [Example 87, 3-[3-({[4-(5-Chloropyridin-3-yl)phenyl](cyclopentyl)acetyl}amino)-2-methylphenyl]butanoic acid, Stereoisomer 2], the “% inhibition of PGE2 in vivo vs vehicle” value ([1]; 1 mg/kg) is reported as 43%, the “% inhibition of PGE2 in vivo vs vehicle” value ([1]; 3 mg/kg) is reported as 65% and the “% inhibition of PGE2 in vivo vs vehicle” value ([1]; 10 mg/kg) is reported as 67%. The concentration at 1 h ([2]; plasma, oral, 1 mg/kg) was 25 nM, the concentration at 1 h ([2]; plasma, oral, 3 mg/kg) was 75 nM and the concentration at 1 h ([2]; plasma, oral, 10 mg/kg) was 172 nM.
In the case of Cc1c(CCC(=O)O)cccc1NC(=O)[C@@H](c1ccc(-c2cncc(C(F)(F)F)c2)cc1)C1CCCC1 [Example 2, (−) (R) 3-{3-[(Cyclopentyl{4-[5-(trifluoromethyl)pyridin-3-yl]phenyl}acetyl)amino]-2-methylphenyl}propanoic acid], the “% inhibition of PGE2 in vivo vs vehicle” value ([1]; 1 mg/kg) is reported as 37%, the “% inhibition of PGE2 in vivo vs vehicle” value ([1]; 3 mg/kg) is reported as 75% and the “% inhibition of PGE2 in vivo vs vehicle” value ([1]; 10 mg/kg) is reported as 94%. It also gave a concentration at 1 h ([2]; plasma, oral, 1 mg/kg) of 21 nM, a concentration at 1 h ([2]; plasma, oral, 3 mg/kg) of 62 nM and a concentration at 1 h ([2]; plasma, oral, 10 mg/kg) of 190 nM.
Cc1c(CC(C)C(=O)O)cccc1NC(=O)C(c1ccc(-c2cncc(OC(F)F)c2)cc1)C1CCCC1 (stereo not shown) [Example 80, (2R/2S)-3-(3-{[(2R/2S)-2-Cyclopentyl-2-{4-[5-(difluoromethoxy)pyridin-3-yl]phenyl}acetyl]amino}-2-methylphenyl)-2-methylpropanoic acid] gave an IC50 (human PTGES; [3]) of 88.5 nM.
Cc1cncc(-c2ccc(C(C(=O)Nc3cccc(CC(C)C(=O)O)c3C)C3CCCC3)cc2)c1 (stereo not shown) [Example 81, (2R/2S)-3-[3-({(2R/2S)-2-Cyclopentyl-2-[4-(5-methylpyridin-3-yl)phenyl]acetyl}amino)-2-methylphenyl]-2-methylpropanoic acid] showed an IC50 (human PTGES; [3]) of 172 nM.
Work on Cc1ncc(-c2ccc(C(C(=O)Nc3cccc(CC(C)C(=O)O)c3C)C3CCCC3)cc2)cc1F (stereo not shown) [Example 82, (2R/2S)-3-[3-({(2R/2S)-2-Cyclopentyl-2-[4-(5-fluoro-6-methylpyridin-3-yl)phenyl]acetyl}amino)-2-methylphenyl]-2-methylpropanoic acid] yielded an IC50 (human PTGES; [3]) of 90.6 nM.
Compound Cc1c(NC(=O)C(c2ccc(-c3cncc(Cl)c3)c(F)c2)C2CCC2)cccc1C(C)CC(=O)O (stereo not shown) [Example 149] has an IC50 (human PTGES; [3]) of 52.1 nM.
In the case of Cc1ncc(-c2ccc(C(C(=O)Nc3cccc(C4CC4C(=O)O)c3C)C3CCCC3)cc2)cc1Cl (stereo not shown) [Example 154, 2-[3-({2-[4-(5-chloro-6-methylpyridin-3-yl)phenyl]-2-cyclopentylacetyl}amino)-2-methylphenyl]cyclopropanecarboxylic acid], the IC50 (human PTGES; [3]) is reported as 42.8 nM.
For CCOc1cncc(-c2ccc(C(C(=O)Nc3cccc(C4CC4C(=O)O)c3C)C3CCCC3)cc2)c1 (stereo not shown) [Example 155, 2-[3-({2-cyclopentyl-2-[4-(5-ethoxypyridin-3-yl)phenyl]acetyl}amino)-2-methylphenyl]cyclopropanecarboxylic acid], the IC50 (human PTGES; [3]) was 158 nM.
For Cc1c(NC(=O)C(c2ccc(-c3cncc(C(F)(F)F)c3)cc2)C2CCCC2)cccc1C1CC1C(=O)O (stereo not shown) [Example 156, 2-(3-{[2-cyclopentyl-2-{4-[5-(trifluoromethyl)pyridin-3-yl]phenyl}acetyl]amino}-2-methylphenyl)cyclopropanecarboxylic acid], the IC50 (human PTGES; [3]) was 32.9 nM.
In the case of Cc1ncc(-c2ccc([C@H](C(=O)Nc3ccc(F)c(CCC(=O)O)c3C)C3CCCC3)cc2)cc1Cl [Example 184, 3-[3-({(2R)-2-[4-(5-chloro-6-methylpyridin-3-yl)phenyl]-2-cyclopentylacetyl}amino)-6-fluoro-2-methylphenyl]propanoic acid], the IC50 (human PTGES; [3]) is reported as 23.7 nM.
Cc1ncc(-c2ccc([C@H](C(=O)Nc3cccc(N(C)CC(=O)O)c3C)C3CCCC3)cc2)cc1Cl [Example 187, N-[3-({(2R)-2-[4-(5-chloro-6-methylpyridin-3-yl)phenyl]-2-cyclopentylacetyl}amino)-2-methylphenyl]-N-methylglycine] showed an IC50 (human PTGES; [3]) of 23.9 nM.
For Cc1c(CCC(=O)O)cccc1NC(=O)[C@@H](c1ccc(-c2cncc(OC(C)C)c2)cc1)C1CCCC1 [Example 190, 3-(3-{[(2R)-2-cyclopentyl-2-{4-[5-(propan-2-yloxy)pyridin-3-yl]phenyl}acetyl]amino}-2-methylphenyl)propanoic acid], the IC50 (human PTGES; [3]) was 36.1 nM.
Compound Cc1c(CCC(=O)O)cccc1NC(=O)[C@@H](c1ccc(-c2cncc(CC(F)(F)F)c2)cc1)C1CCCC1 [Example 191, 3-(3-{[(2R)-2-cyclopentyl-2-{4-[5-(2,2,2-trifluoroethyl)pyridin-3-yl]phenyl}acetyl]amino}-2-methylphenyl)propanoic acid] has an IC50 (human PTGES; [3]) of 60.1 nM.
For Cc1ncc(-c2ccc([C@H](C(=O)Nc3cccc(CCC(=O)O)c3C)C3CCCC3)cc2)cc1C(F)(F)F [Example 192, 3-(3-{[(2R)-2-cyclopentyl-2-{4-[6-methyl-5-(trifluoromethyl)pyridin-3-yl]phenyl}acetyl]amino}-2-methylphenyl)propanoic acid], the IC50 (human PTGES; [3]) was 13.5 nM.
For Cc1c(NC(=O)[C@@H](c2ccc(-c3cncc(Cl)c3)cc2)C2CCCC2)cccc1C(O)CC(=O)O (stereo partly drawn) [Example 193, 3-[3-({(2R)-2-[4-(5-chloropyridin-3-yl)phenyl]-2-cyclopentylacetyl}amino)-2-methylphenyl]-3-hydroxypropanoic acid], the IC50 (human PTGES; [3]) was 232 nM.
Compound COc1c(CCC(=O)O)cccc1NC(=O)C(c1ccc(-c2cncc(C(F)(F)F)c2)cc1)C1CCCC1 (stereo not shown) [Example 213, 3-{3-[(cyclopentyl{4-[5-(trifluoromethyl)pyridin-3-yl]phenyl}acetyl)amino]-2-methoxyphenyl}propanoic acid] has an IC50 (human PTGES; [3]) of 328 nM.
In the case of O=C(O)CCc1cccc(NC(=O)[C@@H](c2ccc(-c3cncc(C(F)(F)F)c3)cc2)C2CCCC2)c1C(F)(F)F [Example 215, 3-[3-{[(2R)-2-cyclopentyl-2-{4-[5-(trifluoromethyl)pyridin-3-yl]phenyl}acetyl]amino}-2-(trifluoromethyl)phenyl]propanoic acid], the IC50 (human PTGES; [3]) is reported as 258 nM.
